Measured values from patent US4764603A, “Stable salts of S-adenosyl-L-methionine with polyanions” (priority 1985, dated 1988).
Counter-ions that a name gives are not always drawn. One block for each molecule: values may come before it.

Experiments:
physchem = format: physicochemical
Procedure: The salts of the present invention are particularly stable even at substantially higher temperatures than the room temperature: an analysis of their thermal stability versus time has, in fact, shown an unlimited stability of these compounds, when maintained in solid phase at 45° C. However, at 75° C., differentiated behaviors of the various salts prepared are observed with respect to one another.

[1] = Excerpt: The liquors are removed by simple decantation and the precipitate is washed twice with 10 l of distilled H2 O while keeping the system under strong stirring.
[2] = Hygroscopicity of the lyophilized or dried solid; format: physicochemical
[3] = format: physicochemical
[4] = tested on: transmethylation reactions; conditions: cited from earlier work
edema = conditions: carrageenin and white-of-egg acute edema; adjuvant arthritis; cited from earlier work
pain from myotasis = conditions: in vivo; cited from earlier work
steatosis = conditions: diet; alcohol, carbon tetrachloride, bromobenzene; cited from earlier work
cholestasis = conditions: in vivo; cited from earlier work
[5] = tested on: osteoarthritis, Parkinson's disease, disorder of sleep, depression, atherosclerosis; conditions: cited from earlier work
H ribonuclease = conditions: cited from earlier work
[6] = tested on: methylene tetrahydrofolic reductase; conditions: cited from earlier work
[7] = tested on: ethanolamianephosphate cytidyltransferase; conditions: cited from earlier work

SMILES: C[S+](CC[C@H](N)C(=O)O)C[C@H]1O[C@@H](n2cnc3c(N)ncnc32)[C@H](O)[C@@H]1O (stereo partly drawn) [Example 1, salt of SAM with the polyparastyrene sulfonate]
- stability of the salt at 45° C. (physchem): unlimited
- thermal stability at 75° C. versus SAM chloride and the double salt SAM^+.HSO4^-.H2 SO4.2CH3 C6 H4 SO3 H (physchem): higher stability

SMILES: Nc1ncnc2c1ncn2[C@@H]1O[C@H](CSCC[C@H](N)C(=O)O)[C@@H](O)[C@H]1O [SAH, S-adenosyl-homocysteine]
- inhibition of transmethylation reactions [4]: powerful inhibitor

SMILES: C[S@@+](CC[C@H](N)C(=O)O)C[C@H]1O[C@@H](n2cnc3c(N)ncnc32)[C@H](O)[C@@H]1O [SAM, 5'-[[(3S)-3-amino-3-carboxy-propyl]methyl-(S)-sulfone]-5'-deoxyadenosine]
- anti-inflammatory effect (edema): ANTI-INFLAMMATORY
- analgesic effect (pain from myotasis): ANALGESIC
- hepatoprotective effect (steatosis): HEPATOPROTECTIVE
- bile fluidifying effect (cholestasis): BILE FLUIDIFYING
- clinical effect: akinesia and rigidity ([5]; Parkinson's disease): IMPROVES AKINESIA
- effect on the action of levodopa ([5]; Parkinson's disease): ENHANCING
- clinical effect: psycho-affective sphere ([5]; atherosclerosis): IMPROVES
- effect on sleep ([5]; disorder of sleep mechanism or of waking-sleeping rhythm): SLEEP INDUCING
- antidepressant effect ([5]; in vivo): ANTIDEPRESSANT
- clinical effect: (depressive) symptomatology ([5]; in vivo): REDUCES OR RESOLVES
- clinical effect: muscular spasms ([5]; osteoarthritis): improves
- inhibition of H ribonuclease (H ribonuclease): inhibitor
- inactivation of H ribonuclease (H ribonuclease; from calf thymus gland): irreversible inactivation
- inhibition of methylene tetrahydrofolic reductase [6]: inhibitor
- inhibition of ethanolaminephosphate cytidyltransferase [7]: inhibitor

SMILES: C[S+](CCCN)C[C@H]1O[C@@H](n2cnc3c(N)ncnc32)[C@H](O)[C@@H]1O (stereo partly drawn) [deca-SAM, S-adenosyl-(5')-3-methylthiopropylamine]
- inhibition of transmethylation reactions [4]: inhibitor

The remaining lines, values ahead:

- solubilisation time / rate at pH >4 relative to Example 1 [1]: increase in solubilisation times
- hygroscopicity [2]: nonhygroscopic
SMILES: C[S+](CC[C@H](N)C(=O)O)C[C@H]1O[C@@H](n2cnc3c(N)ncnc32)[C@H](O)[C@@H]1O (stereo partly drawn) [Example 2]

- thermal stability at 75° C. versus SAM chloride and the double salt SAM^+.HSO4^-.H2 SO4.2CH3 C6 H4 SO3 H (physchem): higher stability
- solubilisation time / rate at pH >4 relative to Example 1 [1]: slower rate of solubilization
- hygroscopicity [2]: nonhygroscopic
SMILES: C[S+](CC[C@H](N)C(=O)O)C[C@H]1O[C@@H](n2cnc3c(N)ncnc32)[C@H](O)[C@@H]1O (stereo partly drawn) [Example 3]

- half-life time at 75° C. (physchem): more than one
- stability of the salt at 45° C. (physchem): unlimited
- thermal stability at 75° C. versus SAM chloride and the double salt SAM^+.HSO4^-.H2 SO4.2CH3 C6 H4 SO3 H (physchem): higher stability
- solubilization at pH >4 [1]: solubilizes rapidly
- residual acidity [3]: negligible
- hygroscopicity [2]: nonhygroscopic
SMILES: C[S+](CC[C@H](N)C(=O)O)C[C@H]1O[C@@H](n2cnc3c(N)ncnc32)[C@H](O)[C@@H]1O (stereo partly drawn) [Example 4]

- stability of the salt at 45° C. (physchem): unlimited
- thermal stability at 75° C. versus SAM chloride and the double salt SAM^+.HSO4^-.H2 SO4.2CH3 C6 H4 SO3 H (physchem): higher stability
- half-life (physchem; solid phase, half-life time at 75° C.): > 240 h
- solubilization at pH 7 ([1]; pH 7): rapidly solubilized
- residual acidity [3]: negligible
- hygroscopicity [2]: nonhygroscopic
SMILES: C[S+](CC[C@H](N)C(=O)O)C[C@H]1O[C@@H](n2cnc3c(N)ncnc32)[C@H](O)[C@@H]1O (stereo partly drawn) [Example 5]

- thermal stability at 75° C. versus SAM chloride and the double salt SAM^+.HSO4^-.H2 SO4.2CH3 C6 H4 SO3 H (physchem): higher stability
SMILES: C[S+](CC[C@H](N)C(=O)O)C[C@H]1O[C@@H](n2cnc3c(N)ncnc32)[C@H](O)[C@@H]1O (stereo partly drawn) [Example 7]

- stability of the salt at 45° C. (physchem): unlimited
- thermal stability at 75° C. versus SAM chloride and the double salt SAM^+.HSO4^-.H2 SO4.2CH3 C6 H4 SO3 H (physchem): higher stability
- solubilization at pH 6 ([1]; pH 6): solubilizes rapidly
- residual acidity [3]: negligible
- hygroscopicity [2]: nonhygroscopic
SMILES: C[S+](CC[C@H](N)C(=O)O)C[C@H]1O[C@@H](n2cnc3c(N)ncnc32)[C@H](O)[C@@H]1O (stereo partly drawn) [Example 9]
